Assay results reported in US20060210500A1, “Formulations” (MERCK PATENT GMBH, priority 2003, published 2006).

What was measured:
[1] = over the entire pH range; cited from earlier work
[2] = test system: Pseudomonas aeruginosa ATCC 9027; assay: challenge test, germ count by Agar plates method; type: cell-based; settings: 8% aqueous suspension
Protocol: (§1) A standard procedure to measure the anti-microbial activity of substances was used (challenge tests). A suspension of test organisms (10^5 to 10^6 germs/ml) is inoculated into a recipient containing already the substance to be tested. Samples of the inoculated suspension are taken and the number of germs is measured thanks to the Agar plates method. Germ counts is performed at t=0, t=24 h after the inoculation, t=48 h after the inoculation, t=7 days after the inoculation, t=14 days after the inoculation.
(§2) Sterile water containing 8% w/w of treated and untreated carriers were each investigated.

[3] = test system: Staphylococcus aureus ATCC 6538; assay: challenge test, germ count by Agar plates method; type: cell-based; settings: 8% aqueous suspension
Protocol: as §1, §2

[4] = test system: Aspergillus niger ATCC 16404; assay: challenge test, germ count by Agar plates method; type: cell-based; settings: 8% aqueous suspension
Protocol: as §1, §2

[5] = test system: Escheria coli ATCC8739; assay: challenge test, germ count by Agar plates method; type: cell-based; settings: 8% aqueous suspension
Protocol: as §1, §2

[6] = test system: Candida albicans ATCC 10231; assay: challenge test, germ count by Agar plates method; type: cell-based; settings: 8% aqueous suspension
Protocol: as §1, §2

**Q.** Which antioxidant action [1] does the source give for O=c1c(O)c(-c2ccc(O)c(O)c2)oc2cc(O)cc(O)c12 [Quercetin, 3,3′,4′,5,7-pentahydroxyflavone] here?
**A.** the greatest activity amongst the structures investigated

**Q.** With silver oxide [0.02% Ag2O] as the compound, how does the “Germs Number/ml after 24 h” value ([2]; 24 h after inoculation) read?
**A.** 0 germs/ml

**Q.** What about the “Germs Number/ml after 48 h” value ([2]; 48 h after inoculation) of the same compound?
**A.** 0 germs/ml

**Q.** What about the “Germs Number/ml after 7 d” value ([2]; 7 d after inoculation) of the same compound?
**A.** 0 germs/ml

**Q.** And the “Germs Number/ml after 14 d” value ([2]; 14 d after inoculation)?
**A.** 0 germs/ml

**Q.** And the “Germs Number/ml after Start” value ([2]; t=0)?
**A.** 2.2 · 10^5 germs/ml

**Q.** What about the “Germs Number/ml after 24 h” value ([3]; 24 h after inoculation) of the same compound?
**A.** 0 germs/ml

**Q.** What about the “Germs Number/ml after 48 h” value ([3]; 48 h after inoculation) of the same compound?
**A.** 0 germs/ml

**Q.** And the “Germs Number/ml after 14 d” value ([3]; 14 d after inoculation)?
**A.** 0 germs/ml

**Q.** And the “Germs Number/ml after Start” value ([3]; t=0)?
**A.** 2.7 · 10^6 germs/ml

**Q.** And the “Germs Number/ml after 24 h” value ([4]; 24 h after inoculation)?
**A.** 3.5 · 10^5 germs/ml

**Q.** What about the “Germs Number/ml after 48 h” value ([4]; 48 h after inoculation) of the same compound?
**A.** 1.6 · 10^5 germs/ml

**Q.** What about the “Germs Number/ml after 7 d” value ([4]; 7 d after inoculation) of the same compound?
**A.** 1.0 · 10^5 germs/ml

**Q.** What about the “Germs Number/ml after 14 d” value ([4]; 14 d after inoculation) of the same compound?
**A.** 2.2 · 10^4 germs/ml

**Q.** And the “Germs Number/ml after Start” value ([4]; t=0)?
**A.** 4.5 · 10^5 germs/ml

**Q.** What about the “Germs Number/ml after 24 h” value ([5]; 24 h after inoculation) of the same compound?
**A.** 0 germs/ml

**Q.** What about the “Germs Number/ml after 48 h” value ([5]; 48 h after inoculation) of the same compound?
**A.** 0 germs/ml

**Q.** What about the “Germs Number/ml after 7 d” value ([5]; 7 d after inoculation) of the same compound?
**A.** 0 germs/ml

**Q.** What about the “Germs Number/ml after 14 d” value ([5]; 14 d after inoculation) of the same compound?
**A.** 0 germs/ml

**Q.** And the “Germs Number/ml after Start” value ([5]; t=0)?
**A.** 2.0 · 10^6 germs/ml

**Q.** What about the “Germs Number/ml after 24 h” value ([6]; 24 h after inoculation) of the same compound?
**A.** 8.3 · 10^2 germs/ml

**Q.** And the “Germs Number/ml after 48 h” value ([6]; 48 h after inoculation)?
**A.** 0 germs/ml

**Q.** What about the “Germs Number/ml after 7 d” value ([6]; 7 d after inoculation) of the same compound?
**A.** 0 germs/ml

**Q.** And the “Germs Number/ml after 14 d” value ([6]; 14 d after inoculation)?
**A.** 0 germs/ml

**Q.** And the “Germs Number/ml after Start” value ([6]; t=0)?
**A.** 9.0 · 10^2 germs/ml
